Consider five molecules from publication PMC10268255 (Proceedings of the National Academy of Sciences of the …, 2023).

One assay addresses αVβ8 ectodomain (Homo sapiens, UniProt P06756+P26012). The assay is described as follows: Fluorescence polarization. In kind it is binding. As to conditions: ratio of FP KDs, αVβ8 vs αVβ6.
Another assay has as its target αVβ6 ectodomain (Homo sapiens, UniProt P06756+P18564). Kind of assay: Fluorescence polarization. The conditions noted are these: FP competition. In kind it is binding. Background: In fluorescence polarisation assays a small probe gives low polarisation when free and higher when bound to something large.
The target in assay [1] is integrin αVβ6 ectodomain (UniProt P06756). The assay is described as follows: fluorescence polarisation.
For another assay, the target named is integrin αVβ8 ectodomain (UniProt P06756 31-992; P26012 43-684). Kind of assay: fluorescence polarisation.
In assay [2] the target is integrin αVβ6 ectodomain (UniProt P06756 31-992; P18564 22-709). The assay is described as follows: fluorescence polarisation.

Turning to Ac-GTSTYTSGDQKTIKSTRKKNSGK-NH2 [23-mer], the “Fold lower affinity of αVβ8 compared to αVβ6” value on αVβ8 ectodomain is 5,500 fold. At αVβ6 ectodomain, the “Fold higher affinity for αVβ6 than the TGF-β2 9-mer” value worked out at 20 fold.
On to Ac-YTSGDQKTIKSTR-NH2 [13-mer], for which the “Fold lower affinity of αVβ8 compared to αVβ6” value at αVβ8 ectodomain is on record as 8,100 fold.
As to “human proTGF-β2 C24S, N140R, D5G (shaved) (natural protein)”, the fold higher affinity than the TGF-β2 9-mer with integrin αVβ6 ectodomain [1] stood at 170 fold.
What is called Kd is a measure of binding affinity in units of concentration. In the assay with integrin αVβ8 ectodomain, Ac-YTSGDQKTIKSTR-NH2 [TGF-β2 13-mer peptide Y259TSGDQKTIKSTR271] yielded an equilibrium dissociation constant (Kd) of 11.4 mM.
Consider Ac-YTSGDQATIKSTR-NH2 (peptide, UniProt P61812 259-271, looked up) [TGF-β2 13-mer peptide K265A], for which the “fold increase in affinity over the wild-type 13-mer” value in the assay with integrin αVβ6 ectodomain [2] was determined as 6.3 fold.
